From paper PMC11984407, “A natural small molecule isoginkgetin alleviates hypercholesterolemia and atherosclerosis by targeting ACLY” (Theranostics, 2025) come the findings set out here.

Structures are written as SMILES.

The test system of one assay is Srebf1c and Fasn mRNA. The experiment in a line: RT-qPCR of lipid synthesis genes after ACLY knockdown in AML12 and Huh7 cells. The assay is classed as cell-based. The settings on record: 5 µM, 50 µM PA, 12 h. Here is the method:
Total RNA was extracted from cultured cells or animal tissue using RNeasy kits (RN001-50Rxns, YiShan, Shanghai, China). Subsequently, cDNA was generated using a Takara Reverse Transcription Kit (RR037B, Takara, Kyoto, Japan). Subsequently, quantitative real-time polymerase chain reaction (RT-qPCR) assays were conducted using ChamQ SYBR qPCR Master Mix (Q311-02, Vazyme, Nanjing, China), following the reverse transcription. The Roche LC96 real-time PCR detection system was employed for the detection of results, with glyceraldehyde-3-phosphate dehydrogenase (GAPDH) serving as the loading control for the quantification of mRNA levels. The fold change relative to the respective controls was determined using the 2^(^-ΔΔCt) method. Primers were designed using the PrimerQuest software and subsequently synthesised by Sangon Biotech (Shanghai, China).
In general terms: Real-time PCR tracks product formation cycle by cycle.

A further assay has as its target T1, hERG channel (Homo sapiens, UniProt Q12809).
T1 construct: expressed in transfected cells
The assay is described as follows: Manual whole-cell patch clamp on HEK cells stably expressing hERG. In kind it is cell-based. Here is the method: The whole-cell patch clamp technique was employed for the experiments. Previously published works detail the methodologies and solutions used for capturing various currents in cardiomyocytes and in HEK cell lines that stably express different K^+ channels. Specifically, the standard bath solution with 5 mM K^+ consisted of 135 mM NaCl, 5 mM KCl, 2 mM CaCl2, 1 mM MgCl2, 10 mM glucose, and 10 mM HEPES, adjusted to pH 7.4 using NaOH. Meanwhile, the bath solution containing 135 mM K^+ was made of 135 mM KCl, 2 mM CaCl2, 1 mM MgCl2, 10 mM glucose, and 10 mM HEPES, with the pH set to 7.4 by adding KOH. All experiments using the patch clamp method were conducted at a controlled room temperature of 22 ± 1 °C.
For orientation: In patch-clamp work, channel activity is measured electrically.

The test system of a further assay is liver gene expression. The experiment in a line: RNA sequencing of Apoe-/- mouse liver. The assay is classed as in vivo. The settings on record: heat map. The text has this:
Total RNA was extracted, and cDNA libraries were generated to investigate differences in gene expression. The Illumina sequencing platform was employed for single-end sequencing of the libraries. HISAT2 software (version 2.0.5) was utilized to align the reads to the mouse reference genome in Ensembl. StringTie (version 1.3.3b) was employed to compute raw counts of genes. DESeq2 (version 1.20.0) software was used to normalize the count matrix. Gene sets were established based on each KEGG pathway term and the associated genes, with GSEA conducted using the Java GSEA platform (version 3.0). This analysis utilized the 'Signal2Noise' metric for ranking and adopted a permutation type specific to 'gene sets'. Gene sets displaying FDR values below 0.25 were deemed to hold statistical significance. The expression patterns of pivotal genes within the pathways enriched by GSEA were visually represented through heatmaps, generated by employing the "pheatmap" package within the R programming environment. The relevant data can be accessed via the Gene Expression Omnibus database, using the following accession number: GSE261858.

A further assay deals with T2, ACLY (Mus musculus, UniProt Q91V92).
T2 sequence (Q91V92 1-1091): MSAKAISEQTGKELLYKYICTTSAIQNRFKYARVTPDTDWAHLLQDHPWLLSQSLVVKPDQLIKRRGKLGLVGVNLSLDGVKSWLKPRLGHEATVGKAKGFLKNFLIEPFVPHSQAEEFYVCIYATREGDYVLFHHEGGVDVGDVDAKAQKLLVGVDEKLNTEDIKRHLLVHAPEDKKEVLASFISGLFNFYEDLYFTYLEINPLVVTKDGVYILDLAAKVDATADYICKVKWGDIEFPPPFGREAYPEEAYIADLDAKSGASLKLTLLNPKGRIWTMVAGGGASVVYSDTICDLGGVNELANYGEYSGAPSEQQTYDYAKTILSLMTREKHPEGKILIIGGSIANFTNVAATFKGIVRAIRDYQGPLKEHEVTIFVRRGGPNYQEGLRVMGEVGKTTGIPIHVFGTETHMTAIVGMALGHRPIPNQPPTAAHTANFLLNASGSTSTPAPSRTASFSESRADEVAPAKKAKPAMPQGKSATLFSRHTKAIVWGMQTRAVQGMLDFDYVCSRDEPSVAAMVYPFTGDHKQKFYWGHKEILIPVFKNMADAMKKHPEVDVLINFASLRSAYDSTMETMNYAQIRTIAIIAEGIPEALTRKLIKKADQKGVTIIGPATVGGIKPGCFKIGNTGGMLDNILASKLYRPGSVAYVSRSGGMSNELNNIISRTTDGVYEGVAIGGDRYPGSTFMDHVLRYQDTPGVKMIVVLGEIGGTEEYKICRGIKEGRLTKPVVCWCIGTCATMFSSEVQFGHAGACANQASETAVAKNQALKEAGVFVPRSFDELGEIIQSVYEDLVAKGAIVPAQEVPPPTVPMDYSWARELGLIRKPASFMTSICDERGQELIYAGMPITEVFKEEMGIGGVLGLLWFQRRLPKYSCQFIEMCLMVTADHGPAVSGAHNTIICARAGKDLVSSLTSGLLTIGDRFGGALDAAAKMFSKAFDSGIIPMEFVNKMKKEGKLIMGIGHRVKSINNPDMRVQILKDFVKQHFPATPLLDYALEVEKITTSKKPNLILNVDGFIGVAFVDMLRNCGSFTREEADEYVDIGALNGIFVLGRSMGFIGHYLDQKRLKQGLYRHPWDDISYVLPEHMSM
The assay is described as follows: Cellular thermal shift assay in AML12 cell lysates. In kind it is binding. Further details: The AML12 cell lysates were separated into two portions; endogenous in cells; host or cells: AML12. The settings on record: 5 µM, 50 to 90 °C. As to the method:
The AML12 cell lysates were separated into two portions; one served as a control, while the other was exposed to 5 µM ISOGK for 1 h at room temperature. Subsequently, the lysates were individually heated at the specified temperatures (50 to 90 °C) for 5 min and allowed to cool at room temperature. Following this, the lysates underwent centrifugation at 12,000 rpm for 10 min at 4 °C, after which the supernatants were analyzed through Western blot.

T1 sequence (Q12809 whole entry): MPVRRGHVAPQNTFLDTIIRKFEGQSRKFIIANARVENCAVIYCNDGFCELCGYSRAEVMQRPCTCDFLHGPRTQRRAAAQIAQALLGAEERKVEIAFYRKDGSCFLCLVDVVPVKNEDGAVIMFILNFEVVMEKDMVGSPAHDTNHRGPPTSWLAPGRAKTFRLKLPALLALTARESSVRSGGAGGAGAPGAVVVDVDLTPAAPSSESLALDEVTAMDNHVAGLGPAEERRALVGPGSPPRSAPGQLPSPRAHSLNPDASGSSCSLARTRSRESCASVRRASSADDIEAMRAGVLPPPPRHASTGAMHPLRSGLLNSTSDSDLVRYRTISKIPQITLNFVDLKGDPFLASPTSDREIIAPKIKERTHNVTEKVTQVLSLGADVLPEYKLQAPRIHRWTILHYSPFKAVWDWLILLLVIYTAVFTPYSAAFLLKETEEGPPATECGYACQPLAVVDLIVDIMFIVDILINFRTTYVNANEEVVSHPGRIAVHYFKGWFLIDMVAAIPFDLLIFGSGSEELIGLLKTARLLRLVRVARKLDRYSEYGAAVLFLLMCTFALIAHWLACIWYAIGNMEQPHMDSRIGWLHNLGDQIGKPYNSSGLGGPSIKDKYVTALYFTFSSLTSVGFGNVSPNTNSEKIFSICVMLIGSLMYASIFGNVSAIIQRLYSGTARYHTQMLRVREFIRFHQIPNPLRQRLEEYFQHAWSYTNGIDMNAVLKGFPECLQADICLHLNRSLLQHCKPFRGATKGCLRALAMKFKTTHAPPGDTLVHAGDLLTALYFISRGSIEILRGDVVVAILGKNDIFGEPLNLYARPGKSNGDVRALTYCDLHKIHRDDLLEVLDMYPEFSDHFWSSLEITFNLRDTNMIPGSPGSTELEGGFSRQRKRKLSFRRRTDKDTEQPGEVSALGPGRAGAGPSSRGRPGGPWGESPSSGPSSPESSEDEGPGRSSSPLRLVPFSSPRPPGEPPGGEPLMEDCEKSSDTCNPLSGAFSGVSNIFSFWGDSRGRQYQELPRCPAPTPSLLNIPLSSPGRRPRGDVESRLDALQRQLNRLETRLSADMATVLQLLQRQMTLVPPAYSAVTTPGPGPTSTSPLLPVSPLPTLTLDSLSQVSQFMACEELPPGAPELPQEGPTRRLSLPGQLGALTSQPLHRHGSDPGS

Consider `COc1ccc(-c2cc(=O)c3c(O)cc(O)c(-c4cc(-c5cc(=O)c6c(O)cc(O)cc6o5)ccc4OC)c3o2)cc1` [ISOGK, Isoginkgetin], for which the “mRNA expression of Srebf1c and Fasn following ACLY knockdown” value with Srebf1c and Fasn mRNA is recorded as “did not demonstrate a further reduction”. Besides, the IC50 (as a rule, the concentration that inhibits the measured activity by half) against hERG channel is greater than 30 µM. In addition, the “expression of fatty acid and cholesterol biosynthesis genes Srebf1, Fasn, Acaca, Cyp51” value in the assay with liver gene expression was “significantly downregulated”. Also, the “thermal stabilization of ACLY” value at ACLY is given as “stabilized the ACLY protein”.
